# Laboratory results reported in patent US12492232B2, “Methods for producing proteins” (South Australian Health and Medical Research Institute …, priority 2018, dated 2025).
# Entries after “also recorded” stand apart in the source; their conditions may differ.
# Key:
# [1] = test system: TSC1/TSC2; experiment: GAP assay: TSC1/TSC2-promoted hydrolysis of GTP bound to recombinant GST-Rheb; assay type: biochemical; details: FLAG-TSC1, FLAG-TSC2, [α-32P]GTP, n=3
# Description: FIGS. 1A-1B: Recombinant GST-Rheb proteins were subjected to GAP assay in the presence of FLAG-TSC1, FLAG-TSC2 and [α-^32P] GTP. GST-Rheb bound to GDP or GTP was pulled down using glutathione beads and the nucleotides were then separated by thin-layer chromatography and visualized by phosphorimager. The positions of GDP and GTP are shown (FIG. 1A). […] FIGS. 1C-1D: CHO cells were co-transfected using Lipofectamine 3000 with vectors encoding wildtype (WT) Rheb or the indicated mutants and TSC1/2 as indicated. 36 h after transfection, cells were transferred to Ham's F12 media lacking FBS for 16 h. Cells were the transferred to Dulbecco's phosphate-buffered saline (D-PBS, which lacks amino acids) for 1 h before cell lysates were harvested for SDS-PAGE and Western Blotting analysis using the indicated antibodies. […] This effect is consistent with lack of sensitivity of the mutant Rhebs to TSC1/TSC2. Thus the Rheb mutants S21L, T23M, G29S, Y35N and E40K promote mTORC1 signalling in the absence of upstream activation due to insensitivity to the GAP activity of the TSC complex.
# A) Recombinant GST-Rheb proteins were subjected to GTPase assays in the presence of FLAG-TSC1, FLAG-TSC2 and [α-^32P]GTP. Nucleotide-bound GST-Rheb was purified from the reaction mixture using 20 μl glutathione bead slurry. Radioactive GDP and GTP were separated by thin-layer chromatography and visualized by phosphorimager.
# [2] = test system: mTORC1 and ER Stress activation markers; experiment: Western blot for mTORC1 and ER stress activation markers in ExpiCHO cells stably expressing Rheb variants; assay type: cell-based
# [3] = test system: ExpiCHO-S™ cells; experiment: Rabbit IgG secretion by ExpiCHO-S cells stably expressing Rheb variants (Easy-Titer Rabbit IgG Assay); assay type: cell-based; details: single replicate; compared to Rheb-WT or Rheb-Y35N
# Procedure: Materials and Methods: ExpiCHO-S™ cells were purchased from ThermoFischer Scientific and cultured in ExpiCHO™ Expression Medium at 37° C. at 8% CO2. […] Transfected cells were grown in 600 μg/mL […] for 6 weeks. Surviving cells were plated as single cells in a 96-well plate and monoclonal colonies selected for FLAG-Rheb expression.
# Rabbit IgG secretion was determined using the ExpiCHO™ Expression system according to the manufacturer's instructions. Briefly, ExpiCHO™ cells expressing either endogenous Rheb or stably expressing exogenous Rheb were seeded at 6×10^6 cells/mL in 25 mL of ExpiCHO™ Expression Medium and transfected with 20 μg of a pcDNA3.1 vector encoding heavy and light chains of Rabbit IgG at a 1:2 ratio of heavy chain:light chain using ExpiFectamine™ CHO Reagent. 24 hours after transfection, cells were feed with ExpiCHO™ Feed and ExpiFectamine™ CHO Enhancer and transferred to 32° C., 5% CO2. Cells were allowed to grow for 10 days with 100 μL samples taken every day. After 10 days, Cells were pelleted by centrifugation at 4000×g for 30 minutes at 4° C. and the supernatant filtered through a […] PVFD filter and collected. IgG yield was determined using Easy-Titer™ Rabbit IgG Assay kit and calculated from a standard curve.
# [4] = test system: CHO cells stably expressing Gaussia luciferase (GLuc); experiment: Secreted Gaussia luciferase assay in CHO cells stably expressing GLuc transfected with Rheb vectors; assay type: cell-based
# Procedure: CHO cells stably expressing Firefly luciferase (FLuc) or Gaussia luciferase (GLuc) as indicated were transfected using Lipofectamine3000 with an empty vector (EV) or vectors for Rheb WT, S21L, T23M, G29S, Y35N or E40K and also treated with the mTOR inhibitor AZD8055 at 100 nM for the total duration where indicated. Fluc and GLuc assays were performed 24 h after transfection and then every 48 h for 7 days. Assay results are normalised to cell number. GLuc-CHO cells were harvested for SDS-PAGE and Western Blot analysis at the 168 h (7-day) time-point to probe for intracellular GLuc, FLAG (Rheb) and actin, as ‘loading control’. […] However, Rheb-T23M and —Y35N caused a significant 3-fold increase in secreted Gaussia luciferase that was also seen with E40K and was prevented by treatment with AZD8055 (C/D [histogram of day 7]). In (E), secreted GLuc was monitored every 4 h from 24 h to 60 h showing the rate of secretion of GLuc was higher when Rheb-T23M is expressed as compared to Rheb-Y35N. The pattern for intracellular levels of Gaussia luciferase (assessed by immunoblot of cell lysates harvested at 7 days post transfection) more closely resemble those intracellular firefly luciferase (F) with little change compared to either the empty vector or WT while still retaining heightened mTORC1 signalling as indicated by the elevated levels of P-S6K1 Thr389 compared to cells transfected with the empty vector. CHO cells expressing Rheb-T23M, Y35N and E40K show a small increases in general protein synthesis but a marked increase in secreted Gaussia protein that is blocked by mTOR inhibition. Thus, Rheb[T23M] selectively promotes production of the secreted protein GLuc in a process that requires mTOR signalling.
# Constructs were introduced into CHO cells using Lipofectamine3000 (Life Technologies) according to the manufacturer's protocol. Cell lines stably expressing secreted luciferase were generated by cloning the GLuc gene with a signal sequence from Nanolight Technology (see paper sent with this version) and cloning this into the pcDNA4 commercially available vector where gene expression was driven by a CMV promoter. The subsequent vectors were transfected, using lipofectamine, into CHO-S freestyle suspension cells and grown in CD-CHO media and then stable transfectant pools selected by addition of zeocin antibiotic. Once stable pools had emerged these were subjected to limited dilution cloning to obtain a range of pools with different secreted GLuc expression levels. Methods as are described, for example, in Josse et al. (2009) Biotechnology and Bioengineering 105: 556-566.
# For Gaussia luciferase, we employed the BioLux® Gaussia Luciferase Assay Kit (New England Biolabs (NEB), Cat. No. E3300S) and for firefly luciferase the Luciferase Assay System from Promega (Cat. No. E1500). Cells were grown in Ham's F12 medium F12 nutrient mix, Ham's (Life Technologies, Cat. No. 11765054).
# CHO cells stably expressing Firefly luciferase (FLuc; which is cytoplasmic) or Gaussia luciferase (GLuc; which is secreted) as indicated were transfected using Lipofectamine3000 with an empty vector (EV) or vectors for Rheb WT, S21L, T23M, G29S, Y35N or E40K and treated with the mTOR inhibitor AZD8055 at 100 nM for the total duration where appropriate. Fluc and GLuc assays were performed at 24 h after transfection and then every 48 h for 7 days. Assay results were normalised to cell number. […]
substance,measurement,setting,value
"Rheb-T23M: human Rheb protein with a methionine variant at residue 23 (T23M), SEQ ID NO. 3",hydrolysis of GTP bound to Rheb promoted by TSC1/TSC2,[1],completely unable to promote hydrolysis of GTP; also recorded: did not promote hydrolysis of GTP
same,ER stress response (Western blot markers),[2],mild ER stress response
same,mTORC1 signalling (Western blot markers),[2],increased mTORC1 signalling
same,rate of IgG secretion determined daily over 10 days,[3],maintain a constant rate of IgG secretion over a longer period
same,increase in secreted Gaussia luciferase,"[4]; day 7, normalised to cell number",3 fold
same,rate of secretion of GLuc,"[4]; monitored every 4 h from 24 h to 60 h, compared to Rheb-Y35N",higher
